Experimental data taken from patent US20150038545A1, “HYDROXYPHENYL PYRROLE COMPOUNDS CONTAINING AN HYDROXAMIC ACID AS HDAC INHIBITORS AND MEDICINAL APPLICATIONS THEREOF” (UNIVERSIDAD DEL PAÍS VASCO, priority 2011, published 2015).

Experiments:
Human HDAC2 = molecular target: T1, Human HDAC2 (Homo sapiens, UniProt Q92769); assay: In vitro HDAC2 inhibition, fluorogenic peptide assay; format: biochemical; details: for IC50: read-out: IC50 (nM) of enzyme activity HDAC2
T1 construct: Full length with C-terminal His tag, MW=60 kDa; His (C); purchased BioMol SE-500; host or cells: Sf9 cells, baculovirus
T1 sequence (Q92769 whole entry): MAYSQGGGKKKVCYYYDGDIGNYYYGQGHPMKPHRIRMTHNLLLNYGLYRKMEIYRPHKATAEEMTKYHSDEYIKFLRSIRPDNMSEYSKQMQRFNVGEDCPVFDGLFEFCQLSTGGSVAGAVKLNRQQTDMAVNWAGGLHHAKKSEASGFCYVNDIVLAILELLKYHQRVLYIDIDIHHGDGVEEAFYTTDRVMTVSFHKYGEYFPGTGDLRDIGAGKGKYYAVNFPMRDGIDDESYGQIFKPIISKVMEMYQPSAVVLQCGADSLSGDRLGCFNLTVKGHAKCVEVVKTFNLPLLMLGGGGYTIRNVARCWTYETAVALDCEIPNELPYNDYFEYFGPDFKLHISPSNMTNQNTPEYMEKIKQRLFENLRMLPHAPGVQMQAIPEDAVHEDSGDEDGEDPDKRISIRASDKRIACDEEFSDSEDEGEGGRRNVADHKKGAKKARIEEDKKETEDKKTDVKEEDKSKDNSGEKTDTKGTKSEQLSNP
Method: (§1) All HDAC assays were performed using acetylated AMC-labeled peptide substrate: • Substrate for isoforms HDAC1, 2, 3, 4, 5, 6, 7, 9, 10, 11 and HeLa nuclear extract assays: Acetylated fluorogenic peptide from p53 residues 379-382 (RHKKAc) (BioMol. Cat. # KI-104). • Substrate for HDAC8 assays: Acetylated fluorogenic peptide from p53 residues 379-382 (RHKAcKAc) (BioMol. Cat. # KI-178).
(§2) Enzymes: • HDAC1 assay: 75 nM Human HDAC1 (GenBank Accession No. NM_004964): Full length with C-terminal GST tag, MW=79.9 kDa, expressed by baculovirus expression system in Sf9 cells (BioMol. Cat. # SE-456). • HDAC2 assay: 5 nM Human HDAC2 (GenBank Accession No. Q92769): Full length with C-terminal His tag, MW=60 kDa, expressed by baculovirus expression system in Sf9 cells (BioMol. Cat. # SE-500). • HDAC3 assay: 2.3 nM Human HDAC3/NcoR2 (GenBank Accession No. NM_003883 for HDAC3, GenBank Accession No.NM_006312 for NcoR2): Complex of human HDAC3, full length with C-terminal His tag, MW=49.7 kDa, and human NCOR2, N-terminal GST tag, MW=39 kDa, co-expressed in baculovirus expression system (BioMol. Cat. # SE-507). • HDAC4 assay: 266 nM Human HDAC4 (GenBank Accession No. NM_006037): Amino acids 627-1085 with N-terminal GST tag, MW=75.2 kDa, expressed in baculovirus expression system (BioMol, Hamburg, Germany). • HDAC5 assay: 588 nM Human HDAC5 (GenBank Accession No. NM_001015053): Full length with Nterminal GST tag, MW=150 kDa, expressed by baculovirus expression system in Sf9 cells (BioMol, Hamburg, Germany). • HDAC6 assay: 13 nM Human HDAC6 (GenBank Accession No. BC069243): Full length with N-terminal GST tag, MW=159 kDa, expressed by baculovirus expression system in Sf9 cells (BioMol. Cat. # SE-508). • HDAC7 assay: 962 nM Human HDAC7 (GenBank Accession No. AY302468): Amino acids 518-end with N-terminal GST tag, MW=78 kDa, expressed in baculovirus expression system (BioMol, Hamburg, Germany). • HDAC8 assay: 119 nM Human HDAC8 (GenBank Accession No. NM018486): Full length, MW=42 kDa, expressed in an E. coli expression system (BioMol. Cat. # SE-145). • HDAC9 assay: 986 nM Human HDAC9 (GenBank Accession No. NM178423): Amino acids 604-1066 with C-terminal His tag, MW=50.7 kDa, expressed in baculovirus expression system (BioMol, Hamburg, Germany). • HDAC10 assay: 781 nM Human HDAC10 (GenBank Accession No. NM_032019): Amino acids 1-631 with Nterminal GST tag, MW=96 kDa, expressed by baculovirus expression system in Sf9 cells (BioMol. Cat. # SE-559). • HDAC11 assay: 781 nM Human HDAC11 (GenBank Accession No. NM_BC009676) with N-terminal GST tag, MW=66 kDa, expressed in baculovirus expression system (BioMol. Cat. # SE-560). • HeLaNuclear Extract assay: 25 ng/μl Nuclear Extract from HeLa Cells: Prepared by high salt extraction of HeLa nuclei (human cervical cancer cell line), this extract is a rich source of HDAC activity (BioMol. Cat. # KI-140).
(§3) The reactions were carried out in a 96-well microplate for fluorometry in a 50 μl reaction volume. After the deacetylation reaction, Fluor-de-Lys-Developer (BioMol Cat. # KI-105) was added to each well to digest the deacetylated substrate, thus producing the fluorescent signal. The reaction was allowed to develop for 45 minutes at 30° C. with 5% CO2; then the fluorescent signal was measured with an excitation wavelength at 360 nm and an emission wavelength at 460 nm in a microplate-reading fluorometer (GeminiXS; Molecular Devices, Sunnyvale, Calif.). […] All experiments were performed in triplicate. IC50 was calculated by fitting the experimental data to a dose-response curve. DMSO was used as negative control; Trichostatin A (Biomol Cat. # GR-309) was used as positive control inhibitor.

Human HDAC1 = molecular target: T2, Human HDAC1 (Homo sapiens, UniProt Q13547); assay: In vitro HDAC1 inhibition, fluorogenic peptide assay; format: biochemical; details: for IC50: read-out: IC50 (nM) of enzyme activity HDAC1
T2 construct: Full length with C-terminal GST tag, MW=79.9 kDa; GST (C); purchased BioMol SE-456; host or cells: Sf9 cells, baculovirus
T2 sequence (Q13547 whole entry): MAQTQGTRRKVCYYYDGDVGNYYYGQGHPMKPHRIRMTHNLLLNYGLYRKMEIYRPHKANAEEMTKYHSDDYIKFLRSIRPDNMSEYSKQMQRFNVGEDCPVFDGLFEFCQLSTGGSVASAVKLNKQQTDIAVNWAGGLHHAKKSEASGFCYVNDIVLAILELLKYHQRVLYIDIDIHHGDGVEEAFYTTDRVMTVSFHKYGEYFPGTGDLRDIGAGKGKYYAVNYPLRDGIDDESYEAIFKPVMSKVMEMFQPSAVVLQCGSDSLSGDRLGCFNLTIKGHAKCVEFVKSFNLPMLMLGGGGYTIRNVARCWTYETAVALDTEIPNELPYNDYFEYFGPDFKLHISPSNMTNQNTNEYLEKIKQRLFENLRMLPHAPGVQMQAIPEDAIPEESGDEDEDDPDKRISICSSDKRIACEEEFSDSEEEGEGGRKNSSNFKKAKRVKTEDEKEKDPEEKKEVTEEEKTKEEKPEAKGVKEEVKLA
Method: as §1, §2, §3

SW480 = assay: Cancer cell growth inhibition (CellTiter-Glo), SW480; format: cell-based, Human; details: Homo sapiens; Colorectal Cancer, SW480, 72 h treatment
Method: (§4) Cell culture-based assays were used to evaluate the ability of compounds of the invention to inhibit cancer cell growth.
(§5) Cells were obtained from the American Type Culture Collection (ATCC). Cells were cultured at 37° C. with 5% CO2 in the appropriate growth medium (see table below), and harvested respectively during the logarithmic growth period and counted with hemocytometer. The cell viability was examined by trypan blue exclusion. Cell concentrations were adjusted to 5.56×10^4 cells/ml with respective medium.
(§6) Stock solutions of test compounds and positive drugs Doxorubicin (Zhejiang, Haizheng, China), Cisplatin (Nanjing Zhiyao, China) and Mitomycin (Zhejiang, Haizheng, China) were prepared in dimethyl sulphoxide (DMSO) or PBS at 20 mM.
(§7) In order to determine the IC50 for each compound, experiments were carried out in 96-well plates and the cell lines seeded at a density of 5,000 cells/well. […] All treatments were performed in triplicate. 10 μl of drug solution was added to each well and incubated for 72 hours. At the end of the incubation, 100 μl of the CellTiter-Glo Reagent were added to each well and the contents were mixed for 2 munites on an orbital shaker to induce cell lysis. The plate was incubated at room temperature for 10 minutes to stabilize luminiscent signal, and luminiscent was recorded. […] In order to calculate IC50 values, dose-responsive curves were fitted using nonlinear regression model with a sigmoidal dose response.

SW620 = assay: Cancer cell growth inhibition (CellTiter-Glo), SW620; format: cell-based; details: Homo sapiens, SW-620; Colorectal Cancer, SW620, 72 h treatment
Method: as §4, §5, §6, §7

Colo205 = assay: Cancer cell growth inhibition (CellTiter-Glo), Colo205; format: cell-based; details: Homo sapiens, COLO 205; Colorectal Cancer, Colo205, 72 h treatment
Method: as §4, §5, §6, §7

| SMILES | IC50 (Human HDAC2) [nM] | IC50 (Human HDAC1) [nM] | Selectivity against HDAC6 (IC50 HDACx/IC50 HDAC6) HDAC2 (Human HDAC2) | Selectivity against HDAC6 (IC50 HDACx/IC50 HDAC6) HDAC1 (Human HDAC1) | IC50 (SW480) [µM] | IC50 (SW620) [µM] | IC50 (Colo205) [µM] |
| --- | --- | --- | --- | --- | --- | --- | --- |
| O=C(CCCCCNC(=O)c1[nH]c(-c2ccoc2)cc1-c1ccc(O)cc1)NO [Example 4, 5-(3-furyl)-N-(5-(Hydroxycarbamoyl)pentyl)-3-(4-hydroxy-phenyl)-1H-pyrrole-2-carboxamide] | 864 | 353 | – | – | – | – | – |
| COc1ccc(-c2cc(-c3ccccc3)[nH]c2C(=O)NCCCCCC(=O)NO)cc1 [Compound A, N-[6-(hydroxyamino)-6-oxohexyl]-3-(4-methoxyphenyl)-5-phenyl-1H-pyrrole-2-carboxamide, reference compound] | 1290 | 464 | 64.7 | 23.2 | – | – | – |
| O=C(CCCCCNC(=O)c1[nH]c(-c2ccsc2)cc1-c1ccc(O)cc1)NO [Example 3, N-(5-(hydroxycarbamoyl)pentyl)-3-(4-hydroxyphenyl)-5-(3-thienyl)-1H-pyrrole-2-carboxamide] | 1270 | 438 | – | – | – | – | – |
| O=C(CCCCCNC(=O)c1[nH]c(-c2ccc(O)cc2)cc1-c1ccccc1)NO [Example 2, N-(6-(hydroxyamino)-6-oxohexyl)-5-(4-hydroxyphenyl)-3-phenyl-1H-pyrrole-2-carboxamide] | 396 | 153 | 52.1 | 20.1 | 2.12 | 1.48 | 1.82 |
| O=C(CCCCCNC(=O)c1[nH]c(-c2ccccc2)cc1-c1ccc(O)cc1)NO [Example 1, N-(6-(hydroxyamino)-6-oxohexyl)-3-(4-hydroxyphenyl)-5-phenyl-1H-pyrrole-2-carboxamide] | 1140 | 354 | 81.1 | 25.3 | 1.73 | 1.31 | 1.87 |
| COc1ccc(-c2cc(-c3ccccc3)c(C(=O)NCCCCCC(=O)NO)[nH]2)cc1 [Compound B, N-[6-(hydroxyamino)-6-oxohexyl]-5-(4-methoxyphenyl)-3-phenyl-1H-pyrrole-2-carboxamide, reference compound] | 918 | 276 | 28.7 | 8.6 | – | – | – |
| O=C(CCCCCNC(=O)c1[nH]c(-c2ccc(O)cc2)cc1-c1ccsc1)NO [Example 6, N-(5-(hydroxycarbamoyl)pentyl)-5-(4-hydroxyphenyl)-3-(3-thienyl)-1H-pyrrole-2-carboxamide] | 203 | 49 | – | – | 1.08 | 0.67 | 0.87 |
| O=C(CCCCCNC(=O)c1[nH]c(-c2ccc(O)cc2)cc1-c1ccoc1)NO [Example 5, 3-(3-furyl)-N-(5-(hydroxycarbamoyl)pentyl)-5-(4-hydroxy-phenyl)-1H-pyrrole-2-carboxamide] | 56 | 19 | – | – | 0.48 | 0.3 | 0.59 |
